From US20230141603A1, “BENZODIAZEPINE DERIVATIVES AS GABA A GAMMA1 PAM” (Hoffmann-La Roche Inc., priority 2021, published 2023)

Each molecule was assayed against T1, h-GABAA α2β2γ1 (Homo sapiens, UniProt P47869+Q8N1C3) (assay: Radioligand binding assay, [3H]RO7239181 competition, HEK293F membranes).
T1 sequence (P47869 29-451): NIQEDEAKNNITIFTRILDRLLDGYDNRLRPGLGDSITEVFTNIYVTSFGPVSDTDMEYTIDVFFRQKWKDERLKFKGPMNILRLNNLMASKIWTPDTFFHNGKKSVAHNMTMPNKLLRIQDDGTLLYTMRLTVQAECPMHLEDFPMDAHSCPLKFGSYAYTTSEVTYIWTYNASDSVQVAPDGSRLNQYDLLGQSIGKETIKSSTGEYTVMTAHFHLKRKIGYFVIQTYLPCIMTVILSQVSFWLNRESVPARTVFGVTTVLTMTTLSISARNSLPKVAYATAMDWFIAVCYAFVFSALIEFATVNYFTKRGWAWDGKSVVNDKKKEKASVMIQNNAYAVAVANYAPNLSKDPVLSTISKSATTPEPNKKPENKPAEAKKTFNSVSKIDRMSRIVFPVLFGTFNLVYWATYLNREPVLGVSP
T1 sequence (P47870 25-512 partner limits assumed): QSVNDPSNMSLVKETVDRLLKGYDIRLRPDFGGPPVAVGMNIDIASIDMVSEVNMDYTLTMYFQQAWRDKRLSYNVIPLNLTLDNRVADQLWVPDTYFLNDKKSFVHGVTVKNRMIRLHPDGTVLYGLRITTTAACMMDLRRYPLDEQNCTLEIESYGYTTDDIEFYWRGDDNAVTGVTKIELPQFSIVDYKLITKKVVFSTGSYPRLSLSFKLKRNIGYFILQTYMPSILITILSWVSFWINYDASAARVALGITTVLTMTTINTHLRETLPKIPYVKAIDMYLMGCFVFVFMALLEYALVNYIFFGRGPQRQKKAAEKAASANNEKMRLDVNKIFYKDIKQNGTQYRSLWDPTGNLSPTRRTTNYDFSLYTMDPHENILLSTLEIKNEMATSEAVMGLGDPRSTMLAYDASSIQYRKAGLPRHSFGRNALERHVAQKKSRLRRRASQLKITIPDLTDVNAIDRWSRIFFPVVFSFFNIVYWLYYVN
T1 sequence (Q8N1C3 36-465): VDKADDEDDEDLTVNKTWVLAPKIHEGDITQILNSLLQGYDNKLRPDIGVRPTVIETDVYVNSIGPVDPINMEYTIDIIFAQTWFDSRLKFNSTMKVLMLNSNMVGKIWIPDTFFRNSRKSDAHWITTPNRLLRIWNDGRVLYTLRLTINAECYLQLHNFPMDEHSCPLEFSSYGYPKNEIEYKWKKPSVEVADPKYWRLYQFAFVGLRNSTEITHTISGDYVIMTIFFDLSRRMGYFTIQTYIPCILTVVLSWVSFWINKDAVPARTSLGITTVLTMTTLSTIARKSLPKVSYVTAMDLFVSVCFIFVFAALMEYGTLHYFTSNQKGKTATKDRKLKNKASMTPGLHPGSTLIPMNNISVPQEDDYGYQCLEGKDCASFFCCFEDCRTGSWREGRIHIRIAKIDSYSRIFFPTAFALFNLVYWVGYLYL
Design: signal peptide of human GABAA α5 subunit (Met1 to Ser31), replacing the α2 signal peptide (N); expressed in transfected cells; host or cells: HEK293F cells (ThermoFisher R79007), membranes

SMILES | Ki
Cc1nnc2n1-c1ccc(Br)c(Cl)c1C(c1c(F)cccc1Cl)=NC2 [Example 50, 8-bromo-7-chloro-6-(2-chloro-6-fluoro-phenyl)-1-methyl-4H-[1,2,4]triazolo[4,3-a][1,4]benzodiazepine] | 4.7 nM
Fc1cccnc1C1=NCc2nnc(-c3cccnn3)n2-c2ccc(Cl)c(Cl)c21 [Example 54, 7,8-dichloro-6-(3-fluoro-2-pyridyl)-1-pyridazin-3-yl-4H-[1,2,4]triazolo[4,3-a][1,4]benzodiazepine] | 30.2 nM
Fc1cccnc1C1=NCc2nnc(-c3ccncn3)n2-c2ccc(Cl)c(Cl)c21 [Example 55, 7,8-dichloro-6-(3-fluoro-2-pyridyl)-1-pyrimidin-4-yl-4H-[1,2,4]triazolo[4,3-a][1,4]benzodiazepine] | 18.5 nM
COc1ccc2c(c1Cl)C(c1c(F)cccc1F)=NCc1nnc(-c3cccnn3)n1-2 [Example 57, 7-chloro-6-(2,6-difluorophenyl)-8-methoxy-1-pyridazin-3-yl-4H-[1,2,4]triazolo[4,3-a][1,4]benzodiazepine] | 57.9 nM
Cn1cc(-c2nnc3n2-c2ccc(Cl)c(Cl)c2C(c2ncccc2F)=NC3)cn1 [Example 58, 7,8-dichloro-6-(3-fluoro-2-pyridyl)-1-(1-methylpyrazol-4-yl)-4H-[1,2,4]triazolo[4,3-a][1,4]benzodiazepine] | 33.1 nM
O=c1[nH]nc2n1-c1ccc(Cl)c(Cl)c1C(c1ncccc1F)=NC2 [Example 59, 7,8-dichloro-6-(3-fluoro-2-pyridyl)-2,4-dihydro-[1,2,4]triazolo[4,3-a][1,4]benzodiazepin-1-one] | 26.3 nM
Fc1cccnc1C1=NCc2nncn2-c2ccc(Cl)c(Cl)c21 [Example 60, 7,8-dichloro-6-(3-fluoro-2-pyridyl)-4H-[1,2,4]triazolo[4,3-a][1,4]benzodiazepine] | 38.9 nM
COc1ccc2c(c1Cl)C(c1c(F)cccc1F)=NCc1nnc(-c3ccncn3)n1-2 [Example 61, 7-chloro-6-(2,6-difluorophenyl)-8-methoxy-1-pyrimidin-4-yl-4H-[1,2,4]triazolo[4,3-a][1,4]benzodiazepine] | 77.6 nM
COc1ccc2c(c1Cl)C(c1c(F)cccc1F)=NCc1nnc(-c3cccnc3)n1-2 [Example 62, 7-chloro-6-(2,6-difluorophenyl)-8-methoxy-1-(3-pyridyl)-4H-[1,2,4]triazolo[4,3-a][1,4]benzodiazepine] | 55.3 nM
Fc1cccnc1C1=NCc2nnc(C3CC3)n2-c2ccc(Cl)c(Cl)c21 [Example 65, 7,8-dichloro-1-cyclopropyl-6-(3-fluoro-2-pyridyl)-4H-[1,2,4]triazolo[4,3-a][1,4]benzodiazepine] | 64.9 nM
Fc1cccnc1C1=NCc2nnc(-c3ccncn3)n2-c2ccc(C(F)(F)F)c(Cl)c21 [Example 69, 7-chloro-6-(3-fluoro-2-pyridyl)-1-pyrimidin-4-yl-8-(trifluoromethyl)-4H-[1,2,4]triazolo[4,3-a][1,4]benzodiazepine] | 63.6 nM
Cn1cc(-c2nnc3n2-c2ccc(C(F)(F)F)c(Cl)c2C(c2ncccc2F)=NC3)cn1 [Example 70, 7-chloro-6-(3-fluoro-2-pyridyl)-1-(1-methylpyrazol-4-yl)-8-(trifluoromethyl)-4H-[1,2,4]triazolo[4,3-a][1,4]benzodiazepine] | 41.4 nM
Cc1nnc2n1-c1ccc(Cl)c(Cl)c1C(c1ncccc1F)=NC2 [Example 71, 7,8-dichloro-6-(3-fluoro-2-pyridyl)-1-methyl-4H-[1,2,4]triazolo[4,3-a][1,4]benzodiazepine] | 37.6 nM
Fc1cccnc1C1=NCc2nnc(-c3cccnn3)n2-c2ccc(C(F)(F)F)c(Cl)c21 [Example 72, 7-chloro-6-(3-fluoro-2-pyridyl)-1-pyridazin-3-yl-8-(trifluoromethyl)-4H-[1,2,4]triazolo[4,3-a][1,4]benzodiazepine] | 30.1 nM
Fc1cccnc1C1=NCc2nnc(C3CC3)n2-c2ccc(Br)c(Cl)c21 [Example 77, 8-bromo-7-chloro-1-cyclopropyl-6-(3-fluoro-2-pyridyl)-4H-[1,2,4]triazolo[4,3-a][1,4]benzodiazepine] | 19.6 nM
Cc1nnc2n1-c1ccc(C(F)(F)F)c(Cl)c1C(c1ncccc1F)=NC2 [Example 78, 7-chloro-6-(3-fluoro-2-pyridyl)-1-methyl-8-(trifluoromethyl)-4H-[1,2,4]triazolo[4,3-a][1,4]benzodiazepine] | 50.8 nM
COc1ccc2c(c1Cl)C(c1c(F)cccc1F)=NCc1nnc(C3CC3)n1-2 [Example 79, 7-chloro-1-cyclopropyl-6-(2,6-difluorophenyl)-8-methoxy-4H-[1,2,4]triazolo[4,3-a][1,4]benzodiazepine] | 51.2 nM
COc1nnc2n1-c1ccc(Cl)c(Cl)c1C(c1c(F)cccc1F)=NC2 [Example 90, 7,8-dichloro-6-(2,6-difluorophenyl)-1-methoxy-4H-[1,2,4]triazolo[4,3-a][1,4]benzodiazepine] | 5.8 nM
CO[C@H]1C[C@H](c2nnc3n2-c2ccc(Cl)c(Cl)c2C(c2c(F)cccc2F)=NC3)C1 [Example 91, trans-7,8-dichloro-6-(2,6-difluorophenyl)-1-(3-methoxycyclobutyl)-4H-[1,2,4]triazolo[4,3-a][1,4]benzodiazepine] | 36.3 nM
Fc1cccc(F)c1C1=NCc2nnc(-c3cccnn3)n2-c2ccc(Br)c(Cl)c21 [Example 104, 8-bromo-7-chloro-6-(2,6-difluorophenyl)-1-pyridazin-3-yl-4H-[1,2,4]triazolo[4,3-a][1,4]benzodiazepine] | 2.3 nM
Cc1ncc2n1-c1ccc(Cl)cc1C(c1ccccc1F)=NC2 [Midazolam, reference compound] | 738 nM
